Assay results reported in the METLIN SMRT retention time set (Domingo-Almenara et al. 2019).

Assay: gradient 5% acetonitrile 3 min, to 50% in 2 min, to 85% in 15 min, held 3 min, 100 µL/min
Settings: column: Zorbax Extend-C18 2.1 x 50 mm; eluents: water / acetonitrile, 0.1% formic acid
In short: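 Over 3 months, pure standards in mixtures of ~100 molecules were run by HPLC coupled to a quadrupole time-of-flight mass spectrometer in positive and negative ionization mode. The column was a Zorbax Extend-C18 (2.1 × 50 mm, 1.8 μm) at 100 μL/min, eluted with water and acetonitrile each holding 0.1% formic acid, with 40 μL dead and 900 μL dwell volumes. Retention time was determined from adduct peaks chosen by software and checked manually.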
With `CCCc1nc(NCc2ccccn2)ncc1C(=O)O` the RP-LC retention time was 571 s. Molecule `CCN(Cc1ccccc1)C(=O)c1noc2c1CCCC2` has an RP-LC retention time of 1010 s. Molecule `CCCS(=O)(=O)N1CCC(c2nnc(C3CC3)s2)CC1` has an RP-LC retention time of 684 s. In the case of `COCC(=O)Nc1ccc2nc(N3CCN(C4CCCCC4)CC3)cc(C(=O)O)c2c1`, the RP-LC retention time is reported as 558 s. With `O=C(NC1CCCCC1)c1cccn1Cc1noc(-c2ccccc2)n1` the RP-LC retention time was 1070 s. Molecule `O=C(Nc1ccc(F)cc1)N1CCc2nc(-c3ccc(Cl)cc3)ncc2C1` has an RP-LC retention time of 1010 s. With `Cn1nccc1-c1cccc(-c2noc(/C=C/c3ccccc3Cl)n2)c1` the RP-LC retention time was 1290 s. `COc1ccccc1NC(=O)N1CCC2(CC1)N=C(c1ccc(Cl)cc1)C(=O)N2` gave an RP-LC retention time of 884 s. With `Cc1ccc(N2CC(c3noc(-c4ccc(C)cc4C)n3)CC2=O)cc1` (stereo not given) the RP-LC retention time was 1190 s. Molecule `O=C(Nc1ccc(Cl)cc1)N1CCN(CCn2cnc3cccnc32)CC1` has an RP-LC retention time of 604 s. With `CCOCCCNC(=O)C1CCN(c2nccnc2Oc2ccccc2C)CC1` the RP-LC retention time was 841 s. In the case of `O=c1ccc(N2CCCN(S(=O)(=O)c3ccc(F)cc3F)CC2)nn1-c1ccccc1`, the RP-LC retention time is reported as 842 s. `COCCNC(=O)C1CCN(c2nc3ccc(-c4ccc(F)cc4)nc3s2)CC1` gave an RP-LC retention time of 835 s. `NC(=O)C1CCN(C2CC(=O)N(c3ccc(Cl)c(Cl)c3)C2=O)CC1` (stereo not given) gave an RP-LC retention time of 611 s. `COc1ccc(CCC(=O)N2CCC(C(=O)NCCc3csc(-c4cccs4)n3)CC2)cc1` gave an RP-LC retention time of 826 s. In the case of `CCn1cnc(S(=O)(=O)N2CCC(C(=O)NC3CCCCCCC3)CC2)c1`, the RP-LC retention time is reported as 769 s. With `CS(=O)(=O)Nc1ccc(C2(C(=O)NCc3ccc(F)cc3)CCCCC2)cc1` the RP-LC retention time was 897 s. `CN(C)CC(=O)N1CCC(Oc2nccnc2N(C)C)C1` (stereo not given) gave an RP-LC retention time of 539 s. Work on `CCCCNC(=O)C1CCCN(c2cc(=O)n(C)c(=O)n2C)C1` (stereo not given) yielded an RP-LC retention time of 641 s. Molecule `CCN1CCC(O)(/C=C/c2ccc(C)cc2)C(C(=O)/C=C/c2ccc(C)cc2)C1` (stereo not given) has an RP-LC retention time of 767 s. Work on `C/C(=C\c1csc(C)n1)C1C[C@@H]2O[C@]2(C)CCC[C@H](C)[C@H](O)[C@@H](C)C(=O)C(C)(C)[C@@H](O)CC(=O)O1` (stereo not given in full) yielded an RP-LC retention time of 901 s. In the case of `Cc1cc(C)c2c(n1)SCCN2C(=O)CCC(=O)NCc1ccc(Cl)cc1`, the RP-LC retention time is reported as 696 s. Molecule `CSc1ccc(CNC(=O)c2cn3cc(C)ccc3n2)cc1` has an RP-LC retention time of 708 s. Work on `Cc1cc(-c2c(C)sc(C)c2S(=O)(=O)NCc2ccc(Cl)cc2)n[nH]1` yielded an RP-LC retention time of 1090 s. `Cc1cccc(N2CCN(C(=O)Cn3c(=O)c4nncn4c4ncccc43)CC2)c1C` showed an RP-LC retention time of 791 s. In the case of `CN(C)C(=O)c1n[nH]c2c1CN(C(=O)c1ccc(F)c(F)c1)CC2`, the RP-LC retention time is reported as 634 s. Work on `CCN(CC)CCNC(=O)c1cc2n(n1)CCCN(Cc1ccc(F)cc1)C2=O` yielded an RP-LC retention time of 556 s. `CCc1nc2cc(-c3noc(-c4ccnn4C)n3)ccc2o1` gave an RP-LC retention time of 971 s. `O=c1nc(-c2ccccc2)c2ccccc2[nH]1` showed an RP-LC retention time of 618 s. For `COc1ccccc1-c1noc(C2CCCN2C(=O)Nc2ccc(F)c(Cl)c2)n1` (stereo not given), the RP-LC retention time was 942 s. For `O=C(CN1C(=O)CCS(=O)(=O)c2ccccc21)NCCc1ccccc1`, the RP-LC retention time was 745 s. Work on `O=C(Nc1ccc2c(c1)CCC2)C1CCN(C(=O)c2ncn3c2COC(c2ccc(F)cc2)C3)CC1` (stereo not given) yielded an RP-LC retention time of 872 s. In the case of `COc1ccc2nc(C(=O)NCc3ccc(Br)cc3)cn2n1`, the RP-LC retention time is reported as 879 s. `O=S(=O)(NCc1nc(-c2cccc(-c3ccn[nH]3)c2)no1)c1ccccc1` showed an RP-LC retention time of 768 s. `COc1ccc(N2CC(c3noc(-c4ccc(Cl)cc4OC)n3)CC2=O)cc1` (stereo not given) gave an RP-LC retention time of 971 s. For `Cc1cc(SCC(=O)c2ccc3c(c2)OCO3)nc(C(C)C)n1`, the RP-LC retention time was 764 s. Work on `N#Cc1cc2c(OCC(O)CN3CCN(C(c4ccccc4)c4ccccc4)CC3)cccc2[nH]1` (stereo not given) yielded an RP-LC retention time of 819 s. `CCc1ccc2nc(Nc3ncc4c(n3)CC(c3ccc(OC)cc3)CC4=O)nc(C)c2c1` (stereo not given) gave an RP-LC retention time of 820 s. In the case of `O=C(c1cccs1)N1CCN(c2ccc(=O)n(-c3cccc(Cl)c3)n2)CC1`, the RP-LC retention time is reported as 814 s. `CN=C(NC#N)Nc1ccc(C2=NNC(=O)CC2C)cc1` (stereo not given) gave an RP-LC retention time of 672 s. Molecule `COc1cccc(CNC(=O)COc2ccc(NC(=O)C3CC3)cn2)c1OC` has an RP-LC retention time of 591 s. Work on `CCn1cc(C)c(C(=O)O)c1CC(=O)NCCCN1CCN(C)CC1` yielded an RP-LC retention time of 562 s. `Cc1cc(=O)n(CC(=O)Nc2ccc(Cl)cc2)c(-c2ccc(F)cc2)n1` gave an RP-LC retention time of 1120 s. Molecule `COc1ccc(Cn2nnc3cc(C(=O)Nc4cc(C)on4)ccc32)cc1` has an RP-LC retention time of 817 s. Molecule `O=C(Nc1nc(CC(=O)N2CCCc3ccccc32)cs1)C1CC1` has an RP-LC retention time of 739 s. Molecule `Cc1ccccc1Nc1c(-c2cccc(Br)c2)nc2cnccn12` has an RP-LC retention time of 1040 s. With `Cc1ccc2c(Nc3cccc(C(F)(F)F)c3)c(C(=O)N3CCOCC3)cnc2n1` the RP-LC retention time was 573 s. In the case of `Cc1ccc(N2CC(c3nc(-c4cccc(-c5ccnn5C)c4)no3)CC2=O)cc1` (stereo not given), the RP-LC retention time is reported as 605 s. Work on `Cc1cc(=O)n(CC(=O)Nc2ccccc2Cl)c(N2CCOCC2)n1` yielded an RP-LC retention time of 863 s. In the case of `Cc1cccc(NC(=O)Nc2c(-c3ccc(F)cc3)nc3ccccn23)c1`, the RP-LC retention time is reported as 695 s. Work on `c1ccc(-c2nnc(CN3CCCCC3)o2)cc1` yielded an RP-LC retention time of 566 s. `Cc1ccc(NS(=O)(=O)c2cc(-c3cc(C(F)(F)F)on3)sc2C)c(C)c1` showed an RP-LC retention time of 1230 s. `CCNc1cc(N2CCC(CCC(=O)NCc3ccc(C)o3)CC2)ncn1` showed an RP-LC retention time of 642 s. Molecule `CCN1C(=O)COc2ccc(-c3noc(C4CC(=O)N(c5ccc(C)cc5)C4)n3)cc21` (stereo not given) has an RP-LC retention time of 878 s. `COC(=O)c1c(C)[nH]c(C(=O)N2CCC(CC(=O)N3CCN(c4ccccc4)CC3)CC2)c1C` showed an RP-LC retention time of 775 s. In the case of `CCCN1C(=O)CCc2c(C)nc(-c3ccc(C)cc3)nc21`, the RP-LC retention time is reported as 1150 s. `COCCc1noc(-c2ccccc2OC2CNC2)n1` showed an RP-LC retention time of 590 s. For `CCN1CCC(CCNC(=O)C2CN(C(=O)c3cccs3)CC23CCCCC3)CC1` (stereo not given), the RP-LC retention time was 625 s. `CCN(CC)c1ncc2c(n1)CCC(C(=O)N1CCN(c3ccc(C)cc3)CC1)C2` (stereo not given) showed an RP-LC retention time of 793 s. `COc1ccc(Cn2nccc2NC(=O)c2cc(=O)c3ccc(Br)cc3o2)cc1` showed an RP-LC retention time of 870 s. For `COc1cccc(CN2CCC3(CCC3O)CC2)n1` (stereo not given), the RP-LC retention time was 569 s. `CCN1CCCn2cc(S(=O)(=O)Nc3ccc(C)cc3F)cc2C1=O` gave an RP-LC retention time of 729 s. In the case of `CCc1ccc(NC(=O)C2CCc3nc(N(CC)CC)ncc3C2)cc1` (stereo not given), the RP-LC retention time is reported as 799 s. `O=C(Nc1cccc(Cl)c1)C1CCN(c2cc(N3CCCC3)ncn2)CC1` showed an RP-LC retention time of 714 s. In the case of `CCn1cc(C)c(C(=O)O)c1CC(=O)Nc1cccc(C)n1`, the RP-LC retention time is reported as 678 s. With `Fc1cc(F)cc(-c2nnc(Cc3nc(-c4ccccn4)no3)o2)c1` the RP-LC retention time was 814 s. Work on `Cc1nn(-c2cc(N3CCCCC3)ncn2)c(C)c1CCC(=O)Nc1ccc2c(c1)OCO2` yielded an RP-LC retention time of 921 s. `COCC(=O)NCC12CCC=C1N(C)C(=O)CC2` (stereo not given) gave an RP-LC retention time of 618 s. For `Cc1ccc(CNC(=O)C2CCCN2S(=O)(=O)c2cc3c(cc2C)NC(=O)CO3)cc1` (stereo not given), the RP-LC retention time was 777 s. With `COC(=O)c1c(C)[nH]c(C(=O)N2CCC(CC(=O)NCCc3c[nH]c4ccc(Cl)cc34)CC2)c1C` the RP-LC retention time was 785 s. For `COc1ccc(NC(=O)Cn2cc(-c3ccccc3C)c(N3CCOCC3)n2)c(OC)c1`, the RP-LC retention time was 959 s. In the case of `Cc1ccc(CS(=O)(=O)N2CCC(C3CCNC3)CC2)cc1` (stereo not given), the RP-LC retention time is reported as 588 s. In the case of `CS(=O)(=O)N1CCC(C(=O)Nc2cccc(F)c2)Oc2ccccc21` (stereo not given), the RP-LC retention time is reported as 894 s. Work on `Cc1csc(-c2cc(S(=O)(=O)N3CCCC3)cn2CC(=O)N2CCCC2)n1` yielded an RP-LC retention time of 803 s. `COCCCNC(=O)c1cc(-c2ccc(OC)c(OC)c2)nc2n[nH]c(-c3ccc(OC)cc3)c12` gave an RP-LC retention time of 724 s. `CC1(C)CC(=O)C2=C(C1)Nc1ccccc1N(CC(=O)NCc1ccncc1)C2c1ccco1` (stereo not given) showed an RP-LC retention time of 631 s. With `Cc1ccc(C)c(NC(=O)N2CCN(c3cnn4c(C)nnc4c3)CC2)c1` the RP-LC retention time was 629 s. In the case of `Cc1ccc(-c2noc(Cn3c(=O)n(Cc4ccccc4Cl)c(=O)c4sccc43)n2)cc1C`, the RP-LC retention time is reported as 1290 s. With `COc1ccc(C2=NCC(=O)N(CC(=O)Nc3cc(F)ccc3F)c3sccc32)cc1` the RP-LC retention time was 702 s. Work on `CCCNC(=O)N1CC(c2nc(-c3ccc(F)cc3)no2)C2(CCOCC2)C1` (stereo not given) yielded an RP-LC retention time of 793 s. Work on `O=C(CSC1CCc2ccccc2NC1=O)Nc1ccc(Cl)cc1Cl` (stereo not given) yielded an RP-LC retention time of 930 s. `c1cc(CN2CCC(Oc3nccnc3N3CCOCC3)C2)ccn1` (stereo not given) showed an RP-LC retention time of 546 s. Molecule `CC(=O)Nc1cccc(C(=O)NCCc2c[nH]c3ccc(F)cc23)c1` has an RP-LC retention time of 711 s. In the case of `CCOc1ccc(NC(=O)Cn2cnc3nc(N4CCCC(C(=O)NC)C4)sc3c2=O)cc1` (stereo not given), the RP-LC retention time is reported as 666 s. Molecule `CCC(=O)Nc1c(C)noc1/C=C/c1ccc(S(=O)(=O)N2CCN(c3ccccn3)CC2)s1` has an RP-LC retention time of 677 s. Molecule `COc1ccc(NC(=O)Cn2c(=O)c(CCC(=O)NCC(C)C)nc3ccccc32)c(OC)c1` has an RP-LC retention time of 780 s. `O=C(CSc1nnc2c3cc(-c4ccc(F)cc4)nn3ccn12)Nc1ccc(F)cc1Cl` showed an RP-LC retention time of 940 s. With `CCN(CC)C(=O)c1ccc(C2=CC3(CCNCC3)Oc3cccc(O)c32)cc1` the RP-LC retention time was 725 s. Molecule `Cc1ccc(-c2cc3c(=O)n(CC(O)c4ccc(C)c(C)c4)ccn3n2)c(C)c1` (stereo not given) has an RP-LC retention time of 1080 s. In the case of `O=C(CCC(=O)N1CC2CCCN2c2ccccc21)NCCN1CCCCCC1` (stereo not given), the RP-LC retention time is reported as 646 s.
